Data taken from patent publication US10206937B2, “Boronic acid derivatives and therapeutic uses thereof” (Qpex Biopharma, Inc., priority 2014, dated 2019).
Where two headings read alike, the source gives them in different places.

Key:
NDM-1 [1] = target: T1, NDM-1 (Klebsiella pneumoniae, UniProt C7C422); test: biochemical
VIM-1 = target: T2, VIM-1 (Pseudomonas aeruginosa, UniProt A0A0F7KYQ8); test: biochemical; conditions: cleavage of nitrocefin (200 uM) by VIM-1 supernatant
T2 construct: made in house; host or cells: ECM6711 strain carrying pUCP24-VIM-1 plasmid; culture supernatant used unpurified

OXA-48 = OXA-48 (Klebsiella pneumoniae, UniProt Q6XEC0); test: Inhibition of purified class D carbapenemase OXA-48 (Ki, carbapenem substrates); assay type: biochemical
[2] = target: T3, purified class A, C and D enzymes (UniProt P0AD64, L31Q/G234S/E235K, species not given); assay type: biochemical; conditions: read-out: Ki (SHV-12, NCF); purified SHV-12; nitrocefin reporter substrate
T3 construct: Ki (SHV-12, NCF); other: purified SHV-12; nitrocefin reporter substrate
T3 sequence (P0AD64 1-286 L31Q/G234S/E235K): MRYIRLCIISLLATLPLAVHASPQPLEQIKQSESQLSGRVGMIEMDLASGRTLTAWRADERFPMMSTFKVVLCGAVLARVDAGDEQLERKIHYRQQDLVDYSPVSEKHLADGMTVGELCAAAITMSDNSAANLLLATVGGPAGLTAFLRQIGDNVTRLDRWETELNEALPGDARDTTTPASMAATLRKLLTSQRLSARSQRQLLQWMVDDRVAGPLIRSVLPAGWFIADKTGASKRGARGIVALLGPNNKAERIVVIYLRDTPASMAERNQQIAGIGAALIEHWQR

[3] = target: T4, purified class A, C and D enzymes (UniProt Q6XEC0); assay type: biochemical; conditions: read-out: Ki (OXA-48, NCF); purified OXA-48; nitrocefin reporter substrate
T4 construct: rows headed: Ki (OXA-48, NCF); other: purified OXA-48; nitrocefin reporter substrate

[4] = test system: strains of Enterobacteriaceae overexpressing various carbapenemases (class A and B); test: organism not typed; assay type: cell-based
Text: Several strains simultaneously expressing both class A and class B carbapenemases, which were constructed using conjugation, were also included in the panel.

[5] = target: T5, purified class A, C and D enzymes (UniProt Q9F663); assay type: biochemical; conditions: read-out: Ki (KPC-2, NCF); purified KPC-2; nitrocefin reporter substrate
T5 construct: rows headed: Ki (KPC-2, NCF); other: purified KPC-2; nitrocefin reporter substrate

NDM-1 [6] = target: T1, NDM-1; test: Inhibition of purified class B carbapenemase NDM-1 (Ki, imipenem substrate); assay type: biochemical; conditions: NDM-1, substrate imipenem; read-out: Ki NDM-1, Imipenem
KPC-2 = KPC-2 (Klebsiella pneumoniae, UniProt Q9F663); test: Inhibition of purified class A carbapenemase KPC-2 (Ki, carbapenem substrates); assay type: biochemical
[7] = target: purified class A, C and D enzymes (Enterobacter cloacae, UniProt P05364); assay type: biochemical; conditions: purified P99/AmpC of ECL; nitrocefin reporter substrate
[8] = target: purified class A, C and D enzymes (Escherichia coli, UniProt Q9L5C7); assay type: biochemical; conditions: purified CTX-M-14; nitrocefin reporter substrate
[9] = test system: strains of Enterobacteriaceae producing various carbapenemases (class A, D and B; 104 strains); test: Antibiotics potentiation by Compound 27 (MIC; meropenem, doripenem, ertapenem, cefepime); assay type: cell-based; conditions: Compound 27 at a fixed concentration of 4 μg/ml
[10] = test system: strains of Enterobacteriaceae producing various carbapenemases (class A, D and B; 169 strains); test: Meropenem or tebipenem potentiation by Compounds 97 or 62 (MIC); assay type: cell-based
Description: The largest panel of clinical isolates expressing class A, D and B carbapenemases alone or in combination with other beta-lactamases (169 strains) was used to evaluate carbapenem potentiation activity of Compounds 97 and 62. MIC for meropenem and tebipenem of these strains were determined either alone or in the presence of Compounds 97 or 62, respectively, at a fixed concentration of 8 μg/ml in the growth media.

[11] = cleavage of biapenem (100 uM) by NDM-1, read-out: Ki, Biapenem
[12] = cleavage of imipenem (100 uM) by NDM-1, read-out: Ki, Imipenem
[13] = cleavage of meropenem (100 uM) by NDM-1, read-out: Ki, Meropenem
[14] = cleavage of biapenem by OXA-48, read-out: Ki, Biapenem
[15] = cleavage of imipenem by OXA-48, read-out: Ki, Imipenem
[16] = cleavage of meropenem by OXA-48, read-out: Ki, Meropenem
[17] = cleavage of tebipenem by OXA-48, read-out: Ki, Tebipenem
[18] = purified OXA-48, substrate biapenem, read-out: Ki OXA-48, Biapenem
[19] = cleavage of biapenem by KPC-2, read-out: Ki, Biapenem
[20] = cleavage of doripenem by KPC-2, read-out: Ki, Doripenem
[21] = cleavage of imipenem by KPC-2, read-out: Ki, Imipenem
[22] = cleavage of meropenem by KPC-2, read-out: Ki, Meropenem
[23] = cleavage of tebipenem by KPC-2, read-out: Ki, Tebipenem
[24] = cleavage of doripenem by OXA-48, read-out: Ki, Doripenem
[25] = cleavage of tebipenem (100 uM) by NDM-1, read-out: Ki, Tebipenem
[26] = purified KPC-2, substrate biapenem, read-out: Ki KPC-2, Biapenem

Sequence of purified class A, C and D enzymes (Enterobacter cloacae, UniProt P05364) (P05364 21-381): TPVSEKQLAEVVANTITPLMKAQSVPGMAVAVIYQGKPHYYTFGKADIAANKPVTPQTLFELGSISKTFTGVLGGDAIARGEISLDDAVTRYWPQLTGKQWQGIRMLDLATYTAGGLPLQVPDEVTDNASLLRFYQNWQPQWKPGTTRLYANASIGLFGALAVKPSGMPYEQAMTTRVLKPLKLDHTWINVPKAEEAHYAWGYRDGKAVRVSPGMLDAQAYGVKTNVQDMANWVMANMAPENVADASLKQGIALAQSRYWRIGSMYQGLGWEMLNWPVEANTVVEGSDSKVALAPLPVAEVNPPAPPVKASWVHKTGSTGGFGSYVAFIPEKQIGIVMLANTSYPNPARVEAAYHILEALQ
T1 sequence (C7C422 29-270, looked up, species assumed): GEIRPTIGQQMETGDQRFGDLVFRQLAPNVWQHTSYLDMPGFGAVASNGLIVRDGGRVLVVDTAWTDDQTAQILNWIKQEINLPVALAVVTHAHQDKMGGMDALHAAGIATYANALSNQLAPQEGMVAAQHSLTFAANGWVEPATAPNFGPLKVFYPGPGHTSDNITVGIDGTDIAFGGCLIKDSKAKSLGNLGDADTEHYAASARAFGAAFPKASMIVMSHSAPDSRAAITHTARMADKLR
Sequence of OXA-48 (Q6XEC0 23-265, looked up): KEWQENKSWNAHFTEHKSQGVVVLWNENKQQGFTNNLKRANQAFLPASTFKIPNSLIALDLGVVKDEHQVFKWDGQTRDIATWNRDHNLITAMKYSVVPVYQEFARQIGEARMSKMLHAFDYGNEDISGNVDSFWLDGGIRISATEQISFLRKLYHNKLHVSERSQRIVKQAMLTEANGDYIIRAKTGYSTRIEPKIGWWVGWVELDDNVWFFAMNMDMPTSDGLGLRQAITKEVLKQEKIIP
Sequence of purified class A, C and D enzymes (Escherichia coli, UniProt Q9L5C7) (Q9L5C7 entry or part of it): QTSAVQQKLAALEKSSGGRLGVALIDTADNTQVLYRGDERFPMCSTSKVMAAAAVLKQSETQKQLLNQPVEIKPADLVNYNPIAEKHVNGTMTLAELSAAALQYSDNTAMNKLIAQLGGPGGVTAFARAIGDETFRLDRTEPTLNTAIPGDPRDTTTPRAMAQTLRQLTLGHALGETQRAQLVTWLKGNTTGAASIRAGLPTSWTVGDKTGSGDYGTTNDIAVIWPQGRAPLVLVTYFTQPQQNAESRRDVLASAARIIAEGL
Sequence of KPC-2 (Q9F663 25-293 limits assumed): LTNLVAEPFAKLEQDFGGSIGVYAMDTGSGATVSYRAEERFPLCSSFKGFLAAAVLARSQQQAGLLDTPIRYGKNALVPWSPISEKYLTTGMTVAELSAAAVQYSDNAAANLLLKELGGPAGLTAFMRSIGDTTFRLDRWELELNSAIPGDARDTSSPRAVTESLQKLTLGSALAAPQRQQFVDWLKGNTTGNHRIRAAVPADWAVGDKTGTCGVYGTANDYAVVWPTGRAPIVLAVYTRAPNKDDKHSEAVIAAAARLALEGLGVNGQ

Nn1cnnc1S[C@H]1Cc2cccc(C(=O)O)c2OB1O [Compound 14, (R)-3-(4-amino-4H-1,2,4-triazol-3-ylthio)-2-hydroxy-3,4-dihydro-2H-benzo[e][1,2]oxaborinine-8-carboxylic acid]
Ki (NDM-1 [1]; [11]): < 10 nM | Ki (NDM-1 [1]; [12]): < 10 nM | Ki (NDM-1 [1]; [13]): < 10 nM | IC50 (VIM-1): < 1000 nM | Ki (OXA-48; [14]): 10 to 100 nM | Ki (OXA-48; [15]): 10 to 100 nM | Ki (OXA-48; [16]): > 100 nM | Ki (OXA-48; [17]): > 100 nM | Ki [2]: < 100 nM | Ki [3]: < 100 nM | carbapenem MIC (imipenem, meropenem) [4]: significantly reduced

CS[C@H]1Cc2cccc(C(=O)O)c2OB1O [Compound 16, (R)-2-hydroxy-3-(methylthio)-3,4-dihydro-2H-benzo[e][1,2]oxaborinine-8-carboxylic acid]
Ki (NDM-1 [1]; [12]): < 10 nM | IC50 (VIM-1): < 1000 nM | Ki (OXA-48; [18]): < 10 nM | Ki [2]: 100 to 1000 nM | Ki [3]: < 100 nM | Ki [5]: < 100 nM

O=C(O)c1cccc2c1OB(O)[C@@H](OC1CNC1)C2 [Compound 18, (R)-3-(azetidin-3-yloxy)-2-hydroxy-3,4-dihydro-2H-benzo[e][1,2]oxaborinine-8-carboxylic acid]
Ki (NDM-1 [1]; [11]): < 10 nM | Ki (NDM-1 [1]; [12]): 10 to 100 nM | Ki (NDM-1 [1]; [13]): < 10 nM | IC50 (VIM-1): ≥ 1000 nM | Ki (OXA-48; [18]): < 10 nM | Ki (NDM-1 [6]): 10 to 100 nM | Ki [2]: < 100 nM | Ki [3]: < 100 nM | Ki [5]: 100 to 1000 nM

Nc1nnc(S[C@H]2Cc3ccc(F)c(C(=O)O)c3OB2O)s1 [Compound 23, (R)-3-(5-amino-1,3,4-thiadiazol-2-ylthio)-7-fluoro-2-hydroxy-3,4-dihydro-2H-benzo[e][1,2]oxaborinine-8-carboxylic acid]
Ki (NDM-1 [1]; [12]): 10 to 100 nM | IC50 (VIM-1): ≥ 1000 nM | Ki (KPC-2; [19]): < 10 nM | Ki (KPC-2; [20]): < 10 nM | Ki (KPC-2; [21]): 10 to 100 nM | Ki (KPC-2; [22]): < 10 nM | Ki (KPC-2; [23]): < 10 nM | Ki (OXA-48; [14]): < 10 nM | Ki (OXA-48; [24]): < 10 nM | Ki (OXA-48; [15]): < 10 nM | Ki (OXA-48; [16]): < 10 nM | Ki (OXA-48; [17]): < 10 nM | Ki (NDM-1 [6]): 10 to 100 nM | Ki [2]: < 100 nM | Ki [3]: < 100 nM | Ki [5]: < 100 nM

COc1ccc2c(c1C(=O)O)OB(O)[C@@H](Sc1nnc(N)s1)C2 [Compound 27, (R)-3-(5-amino-1,3,4-thiadiazol-2-ylthio)-2-hydroxy-7-methoxy-3,4-dihydro-2H-benzo[e][1,2]oxaborinine-8-carboxylic acid]
Ki (NDM-1 [1]; [11]): 10 to 100 nM | Ki (NDM-1 [1]; [12]): 10 to 100 nM | Ki (NDM-1 [1]; [13]): < 10 nM | Ki (NDM-1 [1]; [25]): 10 to 100 nM | IC50 (VIM-1): < 1000 nM | Ki (KPC-2; [19]): < 10 nM | Ki (KPC-2; [20]): < 10 nM | Ki (KPC-2; [21]): 10 to 100 nM | Ki (KPC-2; [22]): < 10 nM | Ki (KPC-2; [23]): < 10 nM | Ki (KPC-2; [26]): 10 to 100 nM | Ki (OXA-48; [14]): < 10 nM | Ki (OXA-48; [24]): < 10 nM | Ki (OXA-48; [15]): < 10 nM | Ki (OXA-48; [16]): < 10 nM | Ki (OXA-48; [17]): < 10 nM | Ki (OXA-48; [18]): 10 to 100 nM | Ki (NDM-1 [6]): 10 to 100 nM | Ki (P99/AmpC of ECL, NCF) [7]: Y (0.1 μM to 1 μM) | Ki (CTX-M-14, NCF) [8]: X (Less than 0.1 μM) | Ki [2]: < 100 nM | Ki [3]: < 100 nM | Ki [5]: < 100 nM | antibiotics MIC (meropenem, doripenem, ertapenem, cefepime) [9]: significantly reduced

CSc1ccc2c(c1C(=O)O)OB(O)[C@@H](Sc1nnc(N)s1)C2 [Compound 30, (R)-3-(5-amino-1,3,4-thiadiazol-2-ylthio)-2-hydroxy-7-(methylthio)-3,4-dihydro-2H-benzo[e][1,2]oxaborinine-8-carboxylic acid]
Ki (NDM-1 [1]; [11]): 10 to 100 nM | Ki (NDM-1 [1]; [12]): 10 to 100 nM | Ki (NDM-1 [1]; [13]): < 10 nM | Ki (NDM-1 [1]; [25]): 10 to 100 nM | IC50 (VIM-1): < 1000 nM | Ki (KPC-2; [19]): < 10 nM | Ki (KPC-2; [20]): < 10 nM | Ki (KPC-2; [21]): 10 to 100 nM | Ki (KPC-2; [22]): < 10 nM | Ki (KPC-2; [23]): < 10 nM | Ki (KPC-2; [26]): 10 to 100 nM | Ki (OXA-48; [14]): < 10 nM | Ki (OXA-48; [24]): < 10 nM | Ki (OXA-48; [15]): < 10 nM | Ki (OXA-48; [16]): < 10 nM | Ki (OXA-48; [17]): < 10 nM | Ki (OXA-48; [18]): 10 to 100 nM | Ki (NDM-1 [6]): 10 to 100 nM | Ki (P99/AmpC of ECL, NCF) [7]: X (Less than 0.1 μM) | Ki (CTX-M-14, NCF) [8]: X (Less than 0.1 μM) | Ki [2]: < 100 nM | Ki [3]: < 100 nM | Ki [5]: < 100 nM

COc1ccc2c(c1C(=O)O)OB(O)[C@@H](Sc1nncs1)C2 [Compound 62, (3R)-2-hydroxy-7-methoxy-3-(1,3,4-thiadiazol-2-ylsulfanyl)-3,4-dihydro-1,2-benzoxaborinine-8-carboxylic acid]
Ki (NDM-1 [1]; [11]): 10 to 100 nM | Ki (NDM-1 [1]; [12]): > 100 nM | IC50 (VIM-1): < 1000 nM | Ki (KPC-2; [19]): < 10 nM | Ki (KPC-2; [20]): < 10 nM | Ki (KPC-2; [21]): 10 to 100 nM | Ki (KPC-2; [22]): < 10 nM | Ki (KPC-2; purified KPC-2, substrate biapenem, numeric value, read-out: Ki KPC-2, Biapenem): 3.9 nM | Ki (OXA-48; [14]): < 10 nM | Ki (OXA-48; [24]): < 10 nM | Ki (OXA-48; [15]): < 10 nM | Ki (OXA-48; [16]): < 10 nM | Ki (OXA-48; purified OXA-48, substrate biapenem, numeric value, read-out: Ki OXA-48, Biapenem): 5.6 nM | Ki (NDM-1 [6]): > 100 nM | Ki (P99/AmpC of ECL, NCF) [7]: Y (0.1 μM to 1 μM) | Ki (CTX-M-14, NCF) [8]: X (Less than 0.1 μM) | Ki [2]: < 100 nM | Ki [3]: < 100 nM | Ki [5]: < 100 nM | tebipenem MIC ([10]; Compound 62 at a fixed concentration of 8 μg/ml): significantly reduced

COc1ccc2c(c1C(=O)O)OB(O)[C@@H](Sc1nnc(NCCN)s1)C2 [Compound 97, (3R)-3-[[5-(2-aminoethylamino)-1,3,4-thiadiazol-2-yl]sulfanyl]-2-hydroxy-7-methoxy-3,4-dihydro-1,2-benzoxaborinine-8-carboxylic acid]
Ki (NDM-1 [1]; [12]): < 10 nM | IC50 (VIM-1): < 1000 nM | Ki (NDM-1 [6]): < 10 nM | Ki (P99/AmpC of ECL, NCF) [7]: Y (0.1 μM to 1 μM) | Ki (CTX-M-14, NCF) [8]: X (Less than 0.1 μM) | Ki [2]: < 100 nM | Ki [3]: < 100 nM | Ki [5]: 100 to 1000 nM | meropenem MIC ([10]; Compound 97 at a fixed concentration of 8 μg/ml): significantly reduced
